Data taken from patent publication US8329738B2, “Use of AMPK-activating imidazole derivatives, preparation process therefor and pharmaceutical compositions comprising them” (Merck Patent Gesellschaft mit Beschränkter Haftung, priority 2006, dated 2012).

Tested on: not given
Experiment: not given
Conditions: not given

Row | Structure (SMILES) | melting point [°C]
1 | NC(=O)c1ncn(CCOc2ccc(F)cc2)c1O [Example 1, 1-[2-(4-fluorophenoxy)ethyl]-5-hydroxy-1H-imidazole-4-carboxamide] | 204
2 | NC(=O)c1ncn(CCOc2ccccc2)c1O [Example 2, 5-hydroxy-1-(2-phenoxyethyl)-1H-imidazole-4-carboxamide] | 192
3 | N#Cc1ccc(OCCn2cnc(C(N)=O)c2O)cc1 [Example 3, 1-[2-(4-cyanophenoxy)ethyl]-5-hydroxy-1H-imidazole-4-carboxamide] | 190
4 | COC(=O)c1ccc(OCCn2cnc(C(N)=O)c2O)cc1 [Example 4, methyl 4-[2-(4-carbamoyl-5-hydroxyimidazol-1-yl)ethoxy]benzoate] | 190
5 | CCOC(=O)c1ncn(CCOc2ccc(C#N)cc2)c1O [Example 6, ethyl 5-hydroxy-1-[2-(-4-cyanophenoxy)ethyl]-1H-imidazole-4-carboxylate] | 190
6 | CCOC(=O)c1ncn(CCOc2ccc(F)cc2)c1O [Example 7, ethyl 5-hydroxy-1-[2-(-4-fluorophenoxy)ethyl]-1H-imidazole-4-carboxylate] | 200
7 | CCOC(=O)c1ncn(CCOc2ccc(C(=O)OC)cc2)c1O [Example 8, ethyl 5-hydroxy-1-{2-[-4(methoxycarbonyl)phenoxy]ethyl}-1H-imidazole-4-carboxylate] | 202
8 | CCOC(=O)c1ncn(Cc2ccccc2)c1OC [Example 9, ethyl 1-benzyl-5-methoxy-1H-imidazole-4-carboxylate] | 150 to 153
9 | NC(=O)c1c(O)ncn1-c1ccccc1 [Example 13, 5-hydroxy-3-phenylimidazole-4-carboxamide] | 182
10 | NC(=O)c1c(O)ncn1CCOc1ccc(F)cc1 [Example 15, 3-[2-(4-fluorophenoxy)ethyl]-5-hydroxy-3H-imidazole-4-carboxamide] | 230
11 | N#Cc1ccc(OCCn2cnc(O)c2C(N)=O)cc1 [Example 16, 3-[2-(4-cyanophenoxy)ethyl]-5-hydroxy-3H-imidazole-4-carboxamide] | 264

Second part, the compound after the results:

Row | melting point [°C] | Structure (SMILES)
12 | 230 to 234 | NC(=O)c1c(O)ncn1Cc1ccc(F)cc1 [Example 10, 5-hydroxy-3-(4-fluorobenzyl)imidazole-4-carboxamide]
13 | 206 to 212 | NC(=O)c1c(O)ncn1Cc1ccc(Cl)cc1 [Example 11, 5-hydroxy-3(4-chlorobenzyl)imidazole 4-carboxamide]
14 | 266 to 268 | CCOC(=O)c1ccc(Cn2cnc(O)c2C(N)=O)cc1 [Example 12, 5-hydroxy-3-[4-(ethoxycarbonyl)benzyl]imidazole-4-carboxamide]
15 | 263 | COC(=O)c1ccc(OCCn2cnc(O)c2C(N)=O)cc1 [Example 16b is, methyl 4-[2-(5-carbamoyl-4-hydroxyimidazol-1-yl)ethoxy]-benzoate]
16 | 230 to 231 | NC(=O)c1c(O)ncn1Cc1ccc(N)cc1 [Example 18, 3-(4-aminobenzyl)-5-hydroxy-3H-imidazole-4-carboxamide]
17 | 201 to 203 | COc1ncn(Cc2ccc([N+](=O)[O-])cc2)c1C(N)=O [Example 19, 3-(4-nitrobenzyl)-5-methoxy-3H-imidazole-4-carboxamide]
18 | 193 to 195 | NC(=O)c1c(OCc2ccccc2)ncn1Cc1ccc([N+](=O)[O-])cc1 [Example 20, 3-(4-nitrobenzyl)-5-benzyloxy-3H-imidazole-4-carboxamide]
19 | 257 to 259 | COc1cccc(C(=O)Nc2ccc(Cn3cnc(O)c3C(N)=O)cc2)c1 [Example 21, 5-hydroxy-3-[4-(3-methoxybenzoylamino)benzyl]-3H-imidazole-4-carboxamide]
20 | 232 to 235 | NC(=O)c1c(O)ncn1Cc1ccc(NC(=O)Nc2ccccc2)cc1 [Example 41, 5-hydroxy-3-[4-(3-phenylureido)benzyl]-3H-imidazole-4-carboxamide]
21 | 243 to 244 | NC(=O)Nc1ccc(Cn2cnc(O)c2C(N)=O)cc1 [Example 42, 5-hydroxy-3-[4-ureidobenzyl]-3H-imidazole-4-carboxamide]
22 | 218 to 220 | NC(=O)c1c(O)ncn1Cc1ccc(NC(=O)Nc2cccc(C(=O)O)c2)cc1 [Example 70, 3-{3-[4-(5-carbamoyl-4-hydroxyimidazol-1-ylmethyl)phenyl]ureido}benzoic acid]

Tested on: AMPK
Experiment: AMPK activation: phosphorylation of peptide AMARAA, Delfia protocol
Format: biochemical
Conditions: relative to the basal activity (100%) obtained in the absence of AMP, partially purified AMPK from rat liver
Description: 25 mU of AMPK are incubated in the presence of different concentrations of AMP or of products, for 30 minutes at 30° C., in a final volume of 30 μl comprising 50 mM Hepes, 19 mM MgCl2, 125 μM ATP, 5 mM NaPPi, 1 mM EDTA, 1 mM DTT, 2 mM Na3VO4 and 25 μM of peptide AMARAA biotinyl (Biot-NH-AMARAASAAALARRR-COOH).
The phosphorylation of the peptide AMARAA is then measured according to a Delfia protocol (Perkin-Elmer), using a europium-labelled anti-phospho-serine specific antibody.
The AMPK used in this test is a partially purified protein from rat liver.
The percentage of activation is calculated relative to the basal activity (100%) obtained in the absence of AMP.

Row | Structure (SMILES) | % Activation at 200 μM [%]
23 | COc1ccc(NC(=O)Nc2ccc(Cn3cnc(O)c3C(N)=O)cc2)cc1 [Example 43, 5-hydroxy-3-{4-[3-(4-methoxyphenyl)ureido]benzyl}-3H-imidazole-4-carboxamide] | 229
24 | NC(=O)c1c(O)ncn1Cc1ccc(NC(=O)Nc2ccc(Cl)cc2)cc1 [Example 44, 5-hydroxy-3-{4-[3-(4-chlorophenyl)ureido]benzyl}-3H-imidazole-4-carboxamide] | 147
25 | NC(=O)c1c(O)ncn1Cc1ccc(NC(=O)Nc2cccc3ccccc23)cc1 [Example 47, 5-hydroxy-3-[4-(3-naphthalen-1-ylureido)benzyl]-3H-imidazole-4-carboxamide] | 184
26 | CCc1ccc(NC(=O)Nc2ccc(Cn3cnc(O)c3C(N)=O)cc2)cc1 [Example 56, 5-hydroxy-3-{4-[3-(4-ethylphenyl)ureido]benzyl}-3H-imidazole-4-carboxamide] | 289
27 | CSc1ccc(NC(=O)Nc2ccc(Cn3cnc(O)c3C(N)=O)cc2)cc1 [Example 58, 5-hydroxy-3-{4-[3-(4-methylsulfanylphenyl)ureido]benzyl}-3H-imidazole-4-carboxamide] | 311
